According to ChEMBL document CHEMBL1139774, “3-Hydroxy-4-methoxyindolomorphinans as delta opioid selective ligands” (Bioorg Med Chem Lett, 2007):

Tests used:
Rattus norvegicus = organism: Rattus norvegicus; experiment: Selectivity for rat recombinant delta opioid receptor over rat recombinant mu opioid receptor
Mu-type opioid receptor = Mu-type opioid receptor (Rattus norvegicus, UniProt P33535); experiment: Displacement of [3H]DAMGO from rat recombinant mu opioid receptor expressed in C6 cells; format: cell-based
Mu-type opioid receptor, sequence (P33535 whole entry): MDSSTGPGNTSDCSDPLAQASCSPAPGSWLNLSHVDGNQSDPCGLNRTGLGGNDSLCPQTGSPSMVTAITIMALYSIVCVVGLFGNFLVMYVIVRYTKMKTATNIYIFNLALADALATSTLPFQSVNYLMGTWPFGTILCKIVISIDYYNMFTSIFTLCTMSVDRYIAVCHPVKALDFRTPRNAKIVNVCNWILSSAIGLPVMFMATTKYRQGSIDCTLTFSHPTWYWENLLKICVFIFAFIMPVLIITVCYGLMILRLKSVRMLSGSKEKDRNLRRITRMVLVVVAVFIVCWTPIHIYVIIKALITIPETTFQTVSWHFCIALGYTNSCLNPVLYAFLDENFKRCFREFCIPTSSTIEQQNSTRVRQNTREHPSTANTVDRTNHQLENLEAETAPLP

[1] = target: Kappa-type opioid receptor (Homo sapiens, UniProt P41145); experiment: Displacement of [3H]U-69593 from human recombinant kappa opioid receptor expressed in CHO cells; format: cell-based
Kappa-type opioid receptor, sequence (P41145 whole entry): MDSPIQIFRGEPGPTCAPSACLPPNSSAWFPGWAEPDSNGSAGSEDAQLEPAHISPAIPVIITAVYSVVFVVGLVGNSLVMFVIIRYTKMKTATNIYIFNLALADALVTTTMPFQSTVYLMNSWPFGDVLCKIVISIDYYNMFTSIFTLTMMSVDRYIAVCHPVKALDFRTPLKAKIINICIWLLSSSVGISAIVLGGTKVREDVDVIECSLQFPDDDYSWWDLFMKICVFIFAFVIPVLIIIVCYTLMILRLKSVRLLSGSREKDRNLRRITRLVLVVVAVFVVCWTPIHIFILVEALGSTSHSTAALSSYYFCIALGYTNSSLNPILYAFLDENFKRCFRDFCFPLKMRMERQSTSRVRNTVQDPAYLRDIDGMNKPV

[2] = target: Delta-type opioid receptor (Rattus norvegicus, UniProt P33533); experiment: Displacement of [3H]p-Cl-DPDPE from rat recombinant delta opioid receptor expressed in C6 cells; format: cell-based
Delta-type opioid receptor, sequence (P33533 whole entry): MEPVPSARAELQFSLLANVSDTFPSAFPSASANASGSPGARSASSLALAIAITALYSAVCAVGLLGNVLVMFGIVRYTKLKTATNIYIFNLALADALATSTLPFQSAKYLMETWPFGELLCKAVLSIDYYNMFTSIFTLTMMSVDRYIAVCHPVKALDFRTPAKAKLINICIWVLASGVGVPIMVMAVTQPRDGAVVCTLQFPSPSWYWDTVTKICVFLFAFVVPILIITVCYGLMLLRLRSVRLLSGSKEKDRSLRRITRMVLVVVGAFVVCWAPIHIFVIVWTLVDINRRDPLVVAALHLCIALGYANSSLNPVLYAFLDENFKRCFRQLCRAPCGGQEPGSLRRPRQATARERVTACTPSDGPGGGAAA

| Structure (SMILES) | Ratio Ki (Rattus norvegicus) | Ki (Mu-type opioid receptor) [nM] | Ki [1] [nM] | Ki [2] [nM] |
| --- | --- | --- | --- | --- |
| COc1c(O)ccc2c1[C@]13CCN(C)[C@H](C2)[C@]1(O)Cc1c([nH]c2ccccc12)C3 | 105 | 474 | 582 | 4.5 |
| COc1ccc2c(c1OC)[C@]13CCN(CC4CC4)[C@H](C2)[C@]1(O)Cc1c([nH]c2ccccc12)C3 | 90 | 1720 | 1440 | 19 |
| COc1c(O)ccc2c1[C@]13CCN(CC4CC4)[C@H](C2)[C@]1(O)Cc1c([nH]c2ccccc12)C3 | 145 | 58 | 79 | 0.4 |
| COc1ccc2c(c1OC)[C@]13CCN(C)[C@H](C2)[C@]1(O)Cc1c([nH]c2ccccc12)C3 | 185 | 7590 | > 7000 | 41 |
| CN1CC[C@]23c4c5ccc(O)c4O[C@H]2c2[nH]c4ccccc4c2C[C@@]3(O)[C@H]1C5 [OXYMORPHINDOLE CHLORIDE] | 115 | 105 | 515 | 0.9 |
